The NIST ThermoML archive (doi:10.1021/je100581m)

Test: xn = mol fraction of the nth substance listed
Conditions: Liquid, Vibrating tube method

C=CC(C)(O)CCC=C(C)C (stereo not given) [3,7-dimethyl-1,6-octadien-3-ol] + CCO
mass density [kg/m3]
Conditions | x2 = 0 | x2 = 0.1129 | x2 = 0.1935 | x2 = 0.3045 | x2 = 0.4023 | x2 = 0.5121 | x2 = 0.6055 | x2 = 0.7008 | x2 = 0.8009 | x2 = 0.9009
283.15 K, 100 kPa | 869.2 | 866.8 | 865.6 | 862.7 | 859.9 | 855.3 | 850.3 | 843.1 | 832.7 | 818.2
283.15 K, 5000 kPa | 872.3 | 869.9 | 868.7 | 866 | 863.1 | 858.5 | 853.5 | 846.5 | 836.3 | 822
283.15 K, 10000 kPa | 875.2 | 872.9 | 871.7 | 869 | 866.1 | 861.6 | 856.8 | 849.7 | 839.6 | 825.5
283.15 K, 15000 kPa | 878.2 | 875.9 | 874.8 | 872.1 | 869.2 | 864.8 | 860.1 | 853 | 843.1 | 829.2
283.15 K, 20000 kPa | 881 | 878.8 | 877.6 | 874.9 | 872.1 | 867.7 | 862.9 | 856.1 | 846.3 | 832.5
298.15 K, 100 kPa | 856.9 | 854.5 | 853.4 | 850.5 | 847.6 | 843 | 838 | 830.9 | 820.6 | 805.9
298.15 K, 5000 kPa | 860.1 | 857.8 | 856.7 | 853.9 | 851 | 846.5 | 841.4 | 834.6 | 824.4 | 809.9
298.15 K, 10000 kPa | 863.5 | 861.1 | 860 | 857.2 | 854.4 | 850 | 845.1 | 838.2 | 828.1 | 813.9
298.15 K, 15000 kPa | 866.6 | 864.3 | 863.2 | 860.5 | 857.7 | 853.2 | 848.4 | 841.6 | 831.7 | 817.7
298.15 K, 20000 kPa | 869.6 | 867.4 | 866.3 | 863.6 | 860.8 | 856.4 | 851.7 | 844.9 | 835.1 | 821.3
313.15 K, 100 kPa | 844.1 | 841.7 | 840.6 | 837.8 | 834.7 | 830.2 | 825.3 | 818 | 807.9 | 793.2
313.15 K, 5000 kPa | 847.8 | 845.4 | 844.4 | 841.6 | 838.6 | 834.1 | 829.3 | 822.3 | 812.1 | 797.7
313.15 K, 10000 kPa | 851.3 | 849 | 847.9 | 845.2 | 842.3 | 837.8 | 833.1 | 826.1 | 816.1 | 801.9
313.15 K, 15000 kPa | 854.8 | 852.5 | 851.4 | 848.7 | 845.8 | 841.4 | 836.7 | 829.8 | 820 | 806
313.15 K, 20000 kPa | 858.1 | 855.8 | 854.8 | 852.1 | 849.2 | 844.9 | 840.2 | 833.4 | 823.7 | 809.8
328.15 K, 100 kPa | 831.3 | 828.9 | 827.8 | 824.9 | 821.8 | 817.3 | 812.3 | 805.2 | 794.9 | 780.2
328.15 K, 5000 kPa | 835.2 | 832.9 | 831.8 | 828.9 | 825.9 | 821.4 | 816.6 | 809.5 | 799.4 | 784.9
328.15 K, 10000 kPa | 839.1 | 836.9 | 835.8 | 832.9 | 829.9 | 825.5 | 820.6 | 813.9 | 803.9 | 789.6
328.15 K, 15000 kPa | 842.7 | 840.5 | 839.4 | 836.6 | 833.7 | 829.3 | 824.5 | 817.8 | 808 | 793.9
328.15 K, 20000 kPa | 846.3 | 844.1 | 843 | 840.3 | 837.3 | 833 | 828.4 | 821.6 | 811.9 | 798.1

C=CC(C)(O)CCC=C(C)C (stereo not given) [3,7-dimethyl-1,6-octadien-3-ol] + CC(C)O
mass density [kg/m3]
Conditions | x2 = 0 | x2 = 0.1031 | x2 = 0.2049 | x2 = 0.3054 | x2 = 0.4056 | x2 = 0.5022 | x2 = 0.605 | x2 = 0.7008 | x2 = 0.7981 | x2 = 0.9092
283.15 K, 100 kPa | 869.5 | 866.3 | 862.7 | – | 854.1 | 848.8 | 842.3 | 834.6 | – | 809.3
283.15 K, 5000 kPa | 872.6 | 869.5 | – | 861.9 | 857.4 | 852.2 | 845.7 | – | 828.2 | 813.1
283.15 K, 10000 kPa | 875.7 | – | 869 | 864.9 | 860.5 | 855.3 | – | 841.4 | 831.6 | 816.6
283.15 K, 15000 kPa | – | 875.5 | 872.1 | 868.1 | 863.7 | – | 852.2 | 844.9 | 835.1 | 820.4
283.15 K, 20000 kPa | 881.5 | 878.5 | 875 | 870.9 | – | 861.6 | 855.3 | 848 | 838.4 | –
283.18 K, 100 kPa | – | – | – | 858.7 | – | – | – | – | 824.5 | –
283.18 K, 5000 kPa | – | – | 865.9 | – | – | – | – | 838.1 | – | –
283.18 K, 10000 kPa | – | 872.5 | – | – | – | – | 848.9 | – | – | –
283.18 K, 15000 kPa | 878.7 | – | – | – | – | 858.6 | – | – | – | –
283.18 K, 20000 kPa | – | – | – | – | 866.7 | – | – | – | – | 823.7
298.15 K, 100 kPa | 857.3 | 854.1 | 850.5 | 846.3 | 841.7 | 836.4 | 829.7 | 821.9 | 812 | 796.8
298.15 K, 5000 kPa | 860.6 | 857.4 | 853.9 | 849.8 | 845.2 | 839.9 | 833.3 | 825.6 | 815.9 | 800.9
298.15 K, 10000 kPa | 863.9 | 860.8 | 857.3 | 853.2 | 848.7 | 843.5 | 837 | 829.4 | 819.7 | 804.9
298.15 K, 15000 kPa | 867 | 864 | 860.5 | 856.5 | 852 | 846.9 | 840.4 | 832.9 | 823.4 | 808.8
298.15 K, 20000 kPa | 870 | 867 | 863.6 | 859.6 | 855.2 | 850.1 | 843.7 | 836.4 | 826.9 | 812.4
313.15 K, 100 kPa | 844.5 | 841.4 | 837.7 | 833.4 | 828.7 | 823.2 | 816.4 | 808.5 | 798.6 | 783.6
313.15 K, 5000 kPa | 848.2 | 845.1 | 841.5 | 837.3 | 832.6 | 827.2 | 820.6 | 812.8 | 803 | 788.2
313.15 K, 10000 kPa | 851.6 | 848.6 | 845.1 | 840.9 | 836.3 | 831 | 824.4 | 816.8 | 807.1 | 792.5
313.15 K, 15000 kPa | 855 | 852.1 | 848.6 | 844.5 | 840 | 834.8 | 828.2 | 820.6 | 811.1 | 796.7
313.15 K, 20000 kPa | 858.4 | 855.4 | 852 | 847.9 | 843.5 | 838.3 | 831.8 | 824.4 | 814.9 | 800.7
328.15 K, 100 kPa | 831.7 | 828.5 | – | 820.4 | 815.5 | 809.9 | 802.8 | – | 784.8 | 769.8
328.15 K, 5000 kPa | 835.6 | – | 828.8 | 824.5 | 819.7 | 814.2 | – | 799.4 | 789.5 | 774.8
328.15 K, 10000 kPa | – | 836.4 | 832.8 | 828.6 | 823.9 | – | 811.6 | 803.9 | 794.2 | 779.7
328.15 K, 15000 kPa | 843.1 | 840.1 | 836.5 | 832.3 | – | 822.3 | 815.6 | 808 | 798.4 | –
328.15 K, 20000 kPa | 846.7 | 843.6 | 840.2 | – | 831.5 | 826.1 | 819.5 | 812 | – | 788.4
328.18 K, 100 kPa | – | – | 824.8 | – | – | – | – | 794.9 | – | –
328.18 K, 5000 kPa | – | 832.5 | – | – | – | – | 807.2 | – | – | –
328.18 K, 10000 kPa | 839.5 | – | – | – | – | 818.4 | – | – | – | –
328.18 K, 15000 kPa | – | – | – | – | 827.8 | – | – | – | – | 784.1
328.18 K, 20000 kPa | – | – | – | 836 | – | – | – | – | 802.6 | –
